According to ChEMBL document CHEMBL1201862, “PubChem BioAssay data set” (2004):
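Cells were grown in 96-well plates and exposed to each compound for 48 hours at five concentrations; endpoints were interpolated linearly between bracketing concentrations, or set to the highest concentration if not reached. The concentration for 50% growth inhibition is given as GI50.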 Activity calls are given as the source filed them. Rule as the data show it: active = GI50 up to about 1.1 µM and inactive = higher.

What was measured:
Experiment in all cases: NCI-60 cell line screen, 48 h
MCF7 = tested on: MCF7
EKVX = tested on: EKVX
MDA-MB-435 = tested on: MDA-MB-435
HCT-116 = tested on: HCT-116
T47D = tested on: T47D
NCI-H226 = tested on: NCI-H226
SK-OV-3 = tested on: SK-OV-3
SR = tested on: SR
NCI-H460 = tested on: NCI-H460
HL-60 = tested on: HL-60
SK-MEL-28 = tested on: SK-MEL-28
786-0 = tested on: 786-0
NCI/ADR-RES = tested on: NCI/ADR-RES
LOX IMVI = tested on: LOX IMVI
HCT-15 = tested on: HCT-15
IGROV-1 = tested on: IGROV-1
SK-MEL-5 = tested on: SK-MEL-5
RPMI-8226 = tested on: RPMI-8226
MDA-N = tested on: MDA-N
A549 = tested on: A549
SK-MEL-2 = tested on: SK-MEL-2
SN12C = tested on: SN12C
TK-10 = tested on: TK-10
RXF 393 = tested on: RXF 393
OVCAR-5 = tested on: OVCAR-5
MDA-MB-231 = tested on: MDA-MB-231
ACHN = tested on: ACHN
SF-268 = tested on: SF-268
CAKI-1 = tested on: CAKI-1
HT-29 = tested on: HT-29
OVCAR-4 = tested on: OVCAR-4
SF-539 = tested on: SF-539
CCRF-CEM = tested on: CCRF-CEM
SF-295 = tested on: SF-295
OVCAR-8 = tested on: OVCAR-8
HCC 2998 = tested on: HCC 2998
NCI-H23 = tested on: NCI-H23
OVCAR-3 = tested on: OVCAR-3
MOLT-4 = tested on: MOLT-4
HOP-92 = tested on: HOP-92
NCI-H522 = tested on: NCI-H522
Malme-3M = tested on: Malme-3M
DU-145 = tested on: DU-145
UACC-62 = tested on: UACC-62
SNB-19 = tested on: SNB-19
SW-620 = tested on: SW-620
UACC-257 = tested on: UACC-257
HOP-62 = tested on: HOP-62
KM12 = tested on: KM12
COLO 205 = tested on: COLO 205
K562 = tested on: K562
PC-3 = tested on: PC-3
SNB-75 = tested on: SNB-75
M14 = tested on: M14
A498 = tested on: A498
U-251 = tested on: U-251
UO-31 = tested on: UO-31

O=c1c(F)cn2c(=O)n1CCCCCCCn1c(=O)c(F)cn(c1=O)CCCCCCC2
GI50 (MCF7): > 100 µM (inactive)
GI50 (EKVX): > 100 µM (inactive)
GI50 (MDA-MB-435): 64.9 µM (inactive)
GI50 (HCT-116): 73.5 µM (inactive)
GI50 (T47D): > 100 µM (inactive)
GI50 (NCI-H226): 54.5 µM (inactive)
GI50 (SK-OV-3): > 100 µM (inactive)
GI50 (SR): 39.4 µM (inactive)
GI50 (NCI-H460): > 100 µM (inactive)
GI50 (HL-60): 49.5 µM (inactive)
GI50 (SK-MEL-28): 3.13 µM (inactive)
GI50 (786-0): 40.7 µM (inactive)
GI50 (NCI/ADR-RES): 69 µM (inactive)
GI50 (LOX IMVI): > 100 µM (inactive)
GI50 (HCT-15): > 100 µM
GI50 (IGROV-1): > 100 µM (inactive)
GI50 (SK-MEL-5): 39.9 µM (inactive)
GI50 (RPMI-8226): > 100 µM (inactive)
GI50 (MDA-N): > 100 µM (inactive)
GI50 (A549): > 100 µM (inactive)
GI50 (SK-MEL-2): > 100 µM (inactive)
GI50 (SN12C): > 100 µM (inactive)
GI50 (TK-10): 90.2 µM (inactive)
GI50 (RXF 393): 39.1 µM (inactive)
GI50 (OVCAR-5): > 100 µM (inactive)
GI50 (MDA-MB-231): 34 µM (inactive)
GI50 (ACHN): > 100 µM (inactive)
GI50 (SF-268): 0.59 µM (active)
GI50 (CAKI-1): 78.3 µM (inactive)
GI50 (HT-29): 50.4 µM (inactive)
GI50 (OVCAR-4): 30.1 µM (inactive)
GI50 (SF-539): 33.1 µM (inactive)
GI50 (CCRF-CEM): 76 µM (inactive)
GI50 (SF-295): > 100 µM (inactive)
GI50 (OVCAR-8): 59.4 µM (inactive)
GI50 (HCC 2998): > 100 µM (inactive)
GI50 (NCI-H23): > 100 µM (inactive)
GI50 (OVCAR-3): 61.7 µM (inactive)
GI50 (MOLT-4): > 100 µM (inactive)
GI50 (HOP-92): 57.7 µM (inactive)
GI50 (NCI-H522): > 100 µM (inactive)
GI50 (Malme-3M): 35.7 µM (inactive)
GI50 (DU-145): 1.59 µM (inactive)
GI50 (UACC-62): 60.5 µM (inactive)
GI50 (SNB-19): > 100 µM (inactive)
GI50 (SW-620): > 100 µM (inactive)
GI50 (UACC-257): 36.4 µM (inactive)
GI50 (HOP-62): 46.6 µM (inactive)
GI50 (KM12): 73.1 µM (inactive)
GI50 (COLO 205): > 100 µM (inactive)
GI50 (K562): > 100 µM (inactive)
GI50 (PC-3): > 100 µM (inactive)
GI50 (SNB-75): 0.105 µM (active)
GI50 (M14): 36.1 µM (inactive)
GI50 (A498): 32 µM (inactive)
GI50 (U-251): > 100 µM (inactive)
GI50 (UO-31): > 100 µM (inactive)
